Test results: publication PMC4398506, “Remodeling of host phosphatidylcholine by Chlamydia acyltransferase is regulated by acyl-CoA binding protein ACBD6 associated with lipid droplets” (MicrobiologyOpen, 2015)

Molecular target: T1, CT775 (Chlamydia LPCAT) (Chlamydia trachomatis, UniProt O84780)
T1 construct: gene CT_775; full-length gene (253 residues predicted) in pET28a, His-tagged, expressed in E. coli BL21DE3; cleared lysate or membrane fraction, not purified
Assay: radiometric TLC assay of […]PC formation from lysoPC
Assay type: biochemical
Details: labelled compound; acyl donor with 20 umol/L egg lysoPC; pH 7.0, 37 C, Tween-20

T1 sequence (O84780 entry or part of it): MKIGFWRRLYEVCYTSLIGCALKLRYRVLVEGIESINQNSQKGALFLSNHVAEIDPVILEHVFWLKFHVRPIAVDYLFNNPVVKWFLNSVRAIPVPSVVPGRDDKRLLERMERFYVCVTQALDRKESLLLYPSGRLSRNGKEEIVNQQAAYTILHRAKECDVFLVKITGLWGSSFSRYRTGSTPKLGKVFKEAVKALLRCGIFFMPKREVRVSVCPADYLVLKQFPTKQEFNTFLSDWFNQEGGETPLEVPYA

In the case of CCCCCCCC/C=C\CCCCCCCC(=O)SCCNC(=O)CCNC(=O)[C@H](O)C(C)(C)COP(=O)(O)OP(=O)(O)OC[C@H]1O[C@@H](n2cnc3c(N)ncnc32)[C@H](O)[C@@H]1OP(=O)(O)O [C18:1-CoA], the “radiometric TLC assay of [14C]PC formation from lysoPC” value is reported as “The rate of PC formation by CT775 was dependent on the concentration of oleoyl-CoA”.
